The text below walks through data of patent US20230203045A1, “INHIBITORS OF NEK7 KINASE” (Halia Therapeutics, Inc., priority 2020, published 2023).

Where only a bound is given, the exact number is not on record here.

T1 sequence (Q8TDX7 whole entry): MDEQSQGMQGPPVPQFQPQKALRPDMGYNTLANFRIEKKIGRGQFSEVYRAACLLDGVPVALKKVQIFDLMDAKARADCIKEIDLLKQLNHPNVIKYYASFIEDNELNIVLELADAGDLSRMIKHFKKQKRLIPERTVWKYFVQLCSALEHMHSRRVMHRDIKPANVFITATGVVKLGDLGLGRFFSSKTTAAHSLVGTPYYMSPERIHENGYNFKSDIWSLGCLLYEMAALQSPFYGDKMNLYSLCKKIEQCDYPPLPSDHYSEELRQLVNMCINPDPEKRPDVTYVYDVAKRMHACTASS

The first experiment has as its target T1, full-length recombinant human NEK7 (Homo sapiens, UniProt Q8TDX7).
T1 construct: full-length recombinant human NEK7; GST (N); purchased SignalChem Nab 09-10G; host or cells: Sf9 insect cells (baculovirus)
Briefly: NEK7 Enzymatic Assay. It counts as biochemical. The note with it: casein substrate, [33P]-ATP, 2 hours at room temperature. How it is done:
Casein substrate (from bovine milk, hydrolyzed and partially dephosphorylated mixture of α, β and κ caseins, obtained from Sigma Aldrich, catalogue #C4765, diluted in distilled water to a final concentration of 1 mg/mL) and full-length recombinant human NEK7 (expressed by baculovirus in Sf9 insect cells using a N-terminal GST tag, obtained from SignalChem, catalogue #Nab 09-10G, 0.1 μg/μL) were mixed in assay buffer (20 mM Hepes pH 7.5, 10 mM MgCl2, 1 mM EGTA, 0.02% Brij35, 0.02 mg/ml BSA, 0.1 mM Na3VO4, 2 mM DTT, 1% DMSO). Compounds of interest (serial 3-fold dilution in DMSO from 10 μM to 0.5 nM) or vehicle (1% DMSO) were dispensed into the kinase reaction mixture by Acoustic technology (Echo550; nanoliter range). After incubation at room temperature for 20 minutes, the kinase reaction was initiated by addition of [^33P]-ATP (specific activity 10 μCi/μl) and the mixture was incubated at room temperature for 2 hours. The reaction was then stopped by spotting the reaction mixture on strips of phosphocellulose P81 paper. Following washing, the radioactivity of the P81 paper was measured and kinase activity data were expressed as the percent remaining kinase activity in test samples compared to vehicle reactions. IC50 values and curve fits were obtained using Prism (GraphPad Software).
As a reminder, the IC50 is the concentration needed to halve the response being measured. `CC(C)(C)c1nnc(NC(=O)Nc2ccc(-c3nn(C4CC4)c4ncnc(N)c34)cc2F)s1` [Example 33, 1-(4-(4-amino-1-cyclopropyl-1H-pyrazolo[3,4-d]pyrimidin-3-yl)-2-fluorophenyl)-3-(5-(tert-butyl)-1,3,4-thiadiazol-2-yl)]: the IC50 was > 501 nM. Still for that read-out and setting: next, `Nc1ncnc2c1c(-c1ccc(NC(=O)Nc3cc(C4(C(F)(F)F)CC4)on3)nc1)nn2C1CC1` [Example 64, 1-(5-(4-amino-1-cyclopropyl-1H-pyrazolo[3,4-d]pyrimidin-3-yl)pyridin-2-yl)-3-(5-(1-(trifluoromethyl)cyclopropyl)isoxazol-3-yl)urea]: 151 to 300 nM.

As to `CC(C)(O)Cn1nc(-c2ccc(NC(=O)Nc3cc(C4(C(F)(F)F)CC4)no3)c(F)c2)c2c(N)ncnc21` [Example 66, 1-(4-(4-amino-1-(2-hydroxy-2-methylpropyl)-1H-pyrazolo[3,4-d]pyrimidin-3-yl)-2-fluorophenyl)-3-(3-(1-(trifluoromethyl)cyclopropyl)isoxazol-5-yl)urea], the IC50 was in the range of 151 to 300 nM. For the compound `CC(C)(O)Cn1nc(-c2ccc(NC(=O)Nc3cc(C4(C(F)(F)F)CC4)on3)c(F)c2)c2c(N)ncnc21` [Example 67, 1-(4-(4-amino-1-(2-hydroxy-2-methylpropyl)-1H-pyrazolo[3,4-d]pyrimidin-3-yl)-2-fluorophenyl)-3-(5-(1-(trifluoromethyl)cyclopropyl)isoxazol-3-yl)urea], the concentration for half-maximal inhibition (IC50) is 301 to 500 nM.

Regarding `CN1CC(n2nc(-c3ccc(NC(=O)Nc4cc(C5(C(F)(F)F)CC5)on4)c(F)c3)c3c(N)ncnc32)C1` [Example 68, 1-(4-(4-amino-1-(1-methylazetidin-3-yl)-1H-pyrazolo[3,4-d]pyrimidin-3-yl)-2-fluorophenyl)-3-(5-(1-(trifluoromethyl)cyclopropyl)isoxazol-3-yl)urea], the IC50 is > 501 nM.

In the next experiment the test system is IL-1β release. Briefly: IL-1β Release Assay. Type of experiment: cell-based. The following applies: Homo sapiens; PMA-differentiated THP-1 cells, 250 ng/mL LPS then 20 μM nigericin; cleaved IL-1β in media; read-out: I1-1β release IC50. The method, then:
Approximately 1.5 million THP-1 cells were plated in each well of a 6-well TC plate and incubated with 40 nM PMA in RPMI (10% FBS, 1% Penstrep) for 24 hours. The media was then removed and cells were rested in RPMI (10% FBS, 1% Penstrep) for 24 hours after which time the media was removed and cells were pre-treated for 2 hours with various concentrations of compounds of interest (typically serial 3-fold dilution in RPMI+5% FBS, concentrations ranging from 1 μM to 0.5 nM) in RPMI (5% FBS). The media was again removed and cells were incubated with 250 ng/mL LPS and compounds of interest (concentrations as above) in RMPI (5% FBS) for 2 hours. The media was removed for a last time and cells were incubated with 20 μM nigericin and compounds of interest (concentrations as above) in Opti-MEM for 30 minutes. Cell media was then collected and the amount of cleaved IL-1β was determined using a JESS instrument (Protein Simple) and standard protocols. Cleaved Il-1β antibody was obtained from Cell Signaling (catalogue #83186S) and was used at 1:20 dilution in antibody diluent 2. Protein Simple 1× anti-Rabbit HRP secondary antibody was used along with Protein Simple luminol and peroxide for chemiluminescent detection. Primary antibody incubation time was increased from 30 minutes to 60 minutes.
`CC(C)(C)c1cc(NC(=O)Nc2ccc(-c3nn(C4COC4)c4ncnc(N)c34)cc2F)on1` [Example 12, 1-(4-(4-amino-1-(oxetan-3-yl)-1H-pyrazolo[3,4-d]pyrimidin-3-yl)-2-fluorophenyl)-3-(3-(tert-butyl)isoxazol-5-yl)urea]: the IC50 lay within 51 to 200 nM. As for `CC(C)(C)c1cc(NC(=O)Nc2ccc(-c3nn(C4CC4)c4ncnc(N)c34)cc2F)on1` [Example 13, 1-(4-(4-amino-1-cyclopropyl-1H-pyrazolo[3,4-d]pyrimidin-3-yl)-2-fluorophenyl)-3-(3-(tert-butyl)isoxazol-5-yl)urea], the half-maximal inhibitory concentration (IC50) was < 50 nM.

As to `CC(C)(C)c1cc(NC(=O)Nc2ccc(-c3nn(C4CCN(C5COC5)CC4)c4ncnc(N)c34)cc2F)on1` [Example 14, 1-(4-(4-amino-1-(1-(oxetan-3-yl)piperidin-4-yl)-1H-pyrazolo[3,4-d]pyrimidin-3-yl)-2-fluorophenyl)-3-(3-(tert-butyl)isoxazol-5-yl)urea], the IC50 is < 50 nM. On to `Nc1ncnc2c1c(-c1ccc(NC(=O)Nc3cc(C4(C(F)(F)F)CC4)no3)c(F)c1)nn2C1CC1` [Example 21, 1-(4-(4-amino-1-cyclopropyl-1H-pyrazolo[3,4-d]pyrimidin-3-yl)-2-fluorophenyl)-3-(3-(1-(trifluoromethyl)cyclopropyl)isoxazol-5-yl)urea], for which the IC50 was < 50 nM.

For `Nc1ncnc2c1c(-c1ccc(NC(=O)Nc3cc(C4(C(F)(F)F)CC4)on3)c(F)c1)nn2C1CC1` [Example 25, 1-(4-(4-amino-1-cyclopropyl-1H-pyrazolo[3,4-d]pyrimidin-3-yl)-2-fluorophenyl)-3-(5-(1-(trifluoromethyl)cyclopropyl)isoxazol-3-yl)urea], the IC50 fell in the range of 51 to 200 nM. With `CC(C)(C)c1cc(NC(=O)Nc2ccc(-c3nn(C4CC4)c4ccnc(N)c34)cc2F)on1` [Example 30, 1-(4-(4-amino-1-cyclopropyl-1H-pyrazolo[4,3-c]pyridin-3-yl)-2-fluorophenyl)-3-(3-(tert-butyl)isoxazol-5-yl)urea], the IC50 is < 50 nM.

With `CC1(c2cc(NC(=O)Nc3ccc(-c4nn(C5CC5)c5ncnc(N)c45)cc3F)on2)CC1` [Example 32, 1-(4-(4-amino-1-cyclopropyl-1H-pyrazolo[3,4-d]pyrimidin-3-yl)-2-fluorophenyl)-3-(3-(1-methylcyclopropyl)isoxazol-5-yl)], the IC50 fell in the range of 51 to 200 nM. For `CC(C)(C)c1nnc(NC(=O)Nc2ccc(-c3nn(C4CC4)c4ncnc(N)c34)cc2F)s1` [Example 33, 1-(4-(4-amino-1-cyclopropyl-1H-pyrazolo[3,4-d]pyrimidin-3-yl)-2-fluorophenyl)-3-(5-(tert-butyl)-1,3,4-thiadiazol-2-yl)], the IC50 lay in the range of 201 to 500 nM. Regarding `Nc1nccc2c1c(-c1ccc(NC(=O)Nc3cc(C4(C(F)(F)F)CC4)no3)c(F)c1)nn2C1CC1` [Example 45, 1-(4-(4-amino-1-cyclopropyl-1H-pyrazolo[4,3-c]pyridin-3-yl)-2-fluorophenyl)-3-(3-(1-(trifluoromethyl)cyclopropyl)isoxazol-5-yl)urea], the IC50 lay in the range of 51 to 200 nM.
